Experimental data reported in article PMC10804683, “Identification of the pyridoxal 5′‐phosphate allosteric site in human pyridox(am)ine 5′‐phosphate oxidase” (Protein Science : A Publication of the Protein Society, 2024).

Legend:
human PNPO F48A variant = target: T1, human PNPO F48A variant (Homo sapiens, UniProt Q9NVS9, F48A); assay: PLP inhibition kinetics of PNP oxidation, F48A; type: biochemical; set-up: a main form corresponding to the entire protein; made in house; host or cells: E. coli BL21(DE3); conditions: F48A (behavior much less marked than wild type); Na-HEPES pH 7.6, 2 μM enzyme, PLP 0–16 μM
T1 sequence (Q9NVS9 1-261 F48A): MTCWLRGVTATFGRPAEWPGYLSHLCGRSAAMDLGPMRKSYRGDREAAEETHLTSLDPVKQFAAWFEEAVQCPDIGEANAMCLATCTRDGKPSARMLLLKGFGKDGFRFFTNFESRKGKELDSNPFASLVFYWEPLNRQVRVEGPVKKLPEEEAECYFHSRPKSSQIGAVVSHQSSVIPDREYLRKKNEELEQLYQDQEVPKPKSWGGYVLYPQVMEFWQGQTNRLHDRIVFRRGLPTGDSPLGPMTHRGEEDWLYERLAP
Procedure: This is a general inhibition mechanism that takes into account the possibility of PLP binding to both the active and allosteric sites. PLP binding at the active site gives a complete, competitive inhibition, whereas PLP binding at the allosteric site yields a substrate‐enzyme‐PLP ternary complex that is still catalytically active, although k CAT is reduced by a coefficient whose value is around 0.15. A thorough inhibition kinetic characterization was carried out with the wild type, F48A, F48A/E50L/R258L, and F48A/E50L/H248N/R258L PNPO forms, so as to evaluate the effect of the variations on the allosteric properties of the enzyme. The initial velocity of PNP conversion into PLP was measured in Na‐HEPES buffer (in which PLP is allowed to accumulate) by varying substrate concentration at different, fixed exogenous PLP concentrations, using 2 μM enzyme. A series of saturation curves were obtained that were used to fit the Michaelis–Menten equation (Figure 5), acquiring apparent V MAX and K M values as a function of PLP concentration. […]
FIGURE 5 Characterization of PLP inhibition. Upper panels: The initial velocity of the reaction was measured with 2 μM wild type (a), and the F48A (b), F48A/E50L/R258L (c), and F48A/E50L/H248N/R258L (d) PNPO variants, varying PNP concentration while keeping exogenous PLP fixed at different concentrations (0, 0.25, 0.5, 1, 2, 4, 8, and 16 μM). […]

[1] = target: T2, human PNPO 1-31del variant (holo-enzyme) (Homo sapiens, UniProt Q9NVS9); assay: PLP binding by FMN fluorescence changes, holo 1-31del; conditions: read-out: PLP binding KD^FLUO
T2 construct: a main form corresponding to the entire protein; made in house; host or cells: E. coli BL21(DE3)
T2 sequence (Q9NVS9 32-261): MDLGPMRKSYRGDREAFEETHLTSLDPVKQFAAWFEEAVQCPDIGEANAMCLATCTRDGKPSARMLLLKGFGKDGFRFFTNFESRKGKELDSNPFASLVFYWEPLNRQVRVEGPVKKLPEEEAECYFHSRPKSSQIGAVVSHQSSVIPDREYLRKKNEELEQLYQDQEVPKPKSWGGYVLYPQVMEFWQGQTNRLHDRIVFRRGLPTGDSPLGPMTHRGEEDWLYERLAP
Description: In order to further confirm the location of the PNPO allosteric site, we made several attempts to obtain the crystal structure of the protein‐PLP complex. With the E. coli homologue, any attempt to obtain such a complex with the wild type protein yielded structures in which PLP was bound at the active site, and we could obtain a complex with PLP bound at the allosteric site only when we used a multiple variant form of the enzyme in which the capability to bind ligands at the active site was impaired (Barile et al., [2021]). On the basis of this previous experience, we carried out co‐crystallization attempts with either the wild type or the R225H variant of the human protein and PLP. […] We obtained crystals with both protein forms (Table S1); however, PLP was detected only in the active site of the wild type protein, thus a clear indication about the location of the allosteric site was missing. […] The most interesting features of the 1‐31del form are a lower KD for PLP binding (threefold lower with respect to wild type PNPO), which indicates a higher affinity for the allosteric site, and the related more marked allosteric inhibition, which is evident from the comparison of the reaction kinetics measured in TRIS and HEPES buffers (Figure 7). […]

Kd [1]: 310 ± 30 nM
SMILES: Cc1ncc(COP(=O)(O)O)c(C=O)c1O [PLP, pyridoxal 5′‐phosphate]
type of inhibition of PNP oxidation by PLP (human PNPO F48A variant): typical hyperbolic increase of 1/V MAX and the parabolic increase of K M/V MAX
